Each structure is given as a SMILES string. Where a SMILES comes first, the peptide text is derived from it. [ ]: non-standard residue; d: D form. The star is where a group is joined. Dolaproine = CO[C@@H]([C@@H]1CCCN1)[C@@H](C)C(=O)O; Dil = CC[C@H](C)[C@H](NC)[C@@H](CC(=O)O)OC; X1 = C[C@@H](N*)[C@@H](O)c1ccccc1; NMeV = CN[C@H](C(=O)O)C(C)C

The test system of this data set is HEK‐293 cells (VEGFR2−, αvβ3−). Briefly: AlamarBlue cell viability, HEK-293. It counts as cell-based. The conditions noted are these: 200 nM MMAE in free form, 10 min in PBS, 37 °C, 10% Alamar blue 6 h; HUVEC, HEK-293, HCT-116, A498 compared (Figure S44). An excerpt:
Figure 6 Cytotoxicity of cathepsin B‐cleavable vcMMAE‐DNA‐peptide complexes LC40 and components. a) Viability of HUVECs after treatment with unlabeled DNA complex 2), vcMMAE‐template DNA 3), single‐stranded monovalent DNA‐peptide conjugates 4 and 5), heterobivalent LC40 lacking cytotoxic payload 6), both i) single‐stranded monovalent DNA‐peptide conjugates followed by ii) addition of vcMMAE‐template 7), with i) unlabeled DNA complex followed by addition of ii) both single‐stranded monovalent DNA‐peptide conjugates and subsequently iii) vcMMAE‐template 8 and 9), vcMMAE‐LC40 at varied concentrations 10–15) or with unlabeled DNA complex prior to addition of vcMMAE‐LC40 16 and 17). […] Flow cytometric analysis of HUVECs mixed with e) eGFP‐expressing HEK‐293 cells or f) anti‐EpCAM antibody‐stained HCT‐116 cells assessed by dead cell staining. […]
The collected HUVEC cells were washed twice with OptiMEM and added to 2.4 mL OptiMEM in T25 flasks.The siRNA-lipofectamine complex (600 µL) was added to 2.4 mL HUVEC cells, and the mixture was incubated at 37°C, 5% CO 2 for 4 h. […] The transfection efficiency was calculated by flow cytometry and comparing the signal of anti-integrin antibody (A488) from HUVEC cells transfected with siRNA + lipofectamine with that from the cells with mock transfection (Fig. S39). […]
On the technique in general: The colour change of resazurin is a common sign of viable cells or microbes.

In the case of `CC[C@H](C)[C@@H]([C@@H](CC(=O)N1CCC[C@H]1[C@H](OC)[C@@H](C)C(=O)N[C@H](C)[C@@H](O)c1ccccc1)OC)N(C)C(=O)[C@@H](NC(=O)[C@@H](NC)C(C)C)C(C)C` [MMAE, monomethyl auristatin E] (H-[NMeV]V[Dil][Dolaproine]-X1), the “cytotoxic effect of MMAE in free form, comparison of cell lines” value is on record as “most vulnerable”.

The record behind these values is PMC12455437, “Bispecific DNA‐Peptide Probes for Targeting Receptor Pairs on Live Cells” (Angewandte Chemie (International Ed. in English), 2025).
